Assay results taken from ChEMBL document CHEMBL3272153, “Synthetic inhibitors of Escherichia coli, calf thymus, and Ehrlich ascites tumor thymidylate synthetase” (J Med Chem, 1976).

Key:
[1] = Competitive inhibition of Escherichia coli thymidylate synthetase using 5-[3H]-dUMP as substrate after 7 mins by scintillation counting analysis
[2] = Competitive inhibition of calf thymus thymidylate synthetase using 5-[3H]-dUMP as substrate after 10 mins by scintillation counting analysis; parameters: species or system Bos taurus
[3] = Competitive inhibition of thymidylate synthetase in mouse Ehrlich ascites tumor cells using 5-[3H]-dUMP as substrate after 7 mins by scintillation counting analysis
Bos taurus [4] = organism: Bos taurus; assay: Ratio of Ki to Km for calf thymus thymidylate synthetase
Mus musculus [5] = organism: Mus musculus; assay: Ratio of Ki to Km for thymidylate synthetase in mouse Ehrlich ascites tumor cells
[6] = Selectivity ratio of Ki/Km for calf thymus thymidylate synthetase to Ki/Km for thymidylate synthetase in mouse Ehrlich ascites tumor cells
[7] = Inhibition of Escherichia coli thymidylate synthetase using 5-[3H]-dUMP as substrate
[8] = Non-competitive inhibition of calf thymus thymidylate synthetase using 5-[3H]-dUMP as substrate after 10 mins by scintillation counting analysis; parameters: species or system Bos taurus
[9] = Retardation factor of the compound; assay type: physicochemical
Bos taurus [10] = organism: Bos taurus; assay: Irreversible inactivation of calf thymus thymidylate synthetase assessed as enzyme activity using dUMP as substrate at 0.33 mM preincubated for 3 hrs in absence of cofactor tetrahydrofolate
Bos taurus [11] = organism: Bos taurus; assay: Irreversible inactivation of calf thymus thymidylate synthetase assessed as enzyme activity using dUMP as substrate at 0.33 mM preincubated for 3 hrs in presence of cofactor tetrahydrofolate
Mus musculus [12] = organism: Mus musculus; assay: Irreversible inactivation of thymidylate synthetase in mouse Ehrlich ascites tumor cells assessed as enzyme activity using dUMP as substrate at 0.33 mM preincubated for 3 hrs in absence of cofactor tetrahydrofolate
Mus musculus [13] = organism: Mus musculus; assay: Irreversible inactivation of thymidylate synthetase in mouse Ehrlich ascites tumor cells assessed as enzyme activity using dUMP as substrate at 0.33 mM preincubated for 3 hrs in presence of cofactor tetrahydrofolate

Compound | Ki [1] | Ki [2] | Ki [3] | Ki/Km (Bos taurus [4]) | Ki/Km (Mus musculus [5]) | Selectivity ratio [6] | Ki [7] | Ki [8] | Rf [9] | Activity (Bos taurus [10]) | Activity (Bos taurus [11]) | Activity (Mus musculus [12]) | Activity (Mus musculus [13])
O=c1[nH]c(=O)n([C@H]2C[C@H](O)[C@@H](COP(=O)(O)O)O2)cc1CO | 4 µM | 4 µM | 0.6 µM | 0.44 | 0.15 | 3 | 10.5 µM | – | – | – | – | – | –
CC(=O)c1cn([C@H]2C[C@H](O)[C@@H](COP(=O)(O)O)O2)c(=O)[nH]c1=O | 64 µM | 73 µM | 22 µM | 8.1 | 5.5 | 1.5 | – | – | – | – | – | – | –
O=Cc1cn([C@H]2C[C@H](O)[C@@H](COP(=O)(O)O)O2)c(=O)[nH]c1=O | 0.1 µM | – | 0.08 µM | 0.01 | 0.02 | 0.5 | 0.013 µM | 0.09 µM | – | – | – | – | –
O=c1[nH]c(=O)n([C@H]2C[C@H](O)[C@@H](COP(=O)(O)O)O2)cc1COCc1ccccc1 | 25 µM | 42 µM | 9 µM | 4.6 | 2.2 | 2 | – | – | – | – | – | – | –
C=CCc1cn([C@H]2C[C@H](O)[C@@H](COP(=O)(O)O)O2)c(=O)[nH]c1=O | 135 µM | 130 µM | 40 µM | 14 | 10 | 1.4 | – | – | 0.55 | – | – | – | –
COCc1cn([C@H]2C[C@H](O)[C@@H](COP(=O)(O)O)O2)c(=O)[nH]c1=O | 42 µM | 32 µM | 19 µM | 3.5 | 4.7 | 0.7 | – | – | – | – | – | – | –
O=c1[nH]c(=O)n([C@H]2C[C@H](O)[C@@H](COP(=O)(O)O)O2)cc1CC1CO1 (stereo not given in full) | 25 µM | 33 µM | 14 µM | 3.6 | 3.5 | 1 | – | – | 0.45 | 104% | 85% | 94% | 120%
[N-]=[N+]=NCc1cn([C@H]2C[C@H](O)[C@@H](COP(=O)(O)O)O2)c(=O)[nH]c1=O | 18 µM | 21 µM | 5 µM | 2.3 | 1.2 | 1.9 | – | – | – | 77% | 83% | 60% | 87%
